How the values were obtained:
[1] = PET/CT dosimetry and kinetics in a healthy volunteer; assay type: in vivo, human
Protocol: The healthy subject was injected a total activity of 300 MBq and subsequently PET scans were performed on a Biograph mCT Flow scanner (Siemens, Erlangen, Germany) in three blocks. Block 1 contained PET-1 (start 5 min p.i.) to PET-7 (ending 140 min p.i.), block 2 contained PET-8 (start 180 min p.i.) and PET-9 (240-270 min p.i.), block 3 contained PET-10 (440-480 min p.i.). A non-enhanced low-dose CT (estimate 1.43 mSv, respectively) for attenuation correction was performed at the beginning of each block, followed by serial emission scans without moving the volunteer in between.
Kidneys, liver, spleen, whole heart, upper and lower large intestine, parotid glands, submandibular glands and urinary bladder were segmented into volumes of interest (VOIs) using a percentage of maximum threshold between 20% and 30% using the corresponding CT as guidance and then time activity curves (TACs) were calculated for all organs. The TAC for red marrow was derived from the venous blood samples and then the dose for the red marrow calculated (S. Shen et al., JNM 2002, 43, 1245-1253; G. Sgouros et al., JNM 1993, 34, 689-694.). The TAC for the urinary bladder content was a combination of estimated activity in the urinary bladder VOI in PET and activity measured in the voided urine. Curve fitting was applied to all TACs. Kidneys, salivary glands, upper and lower large intestine and heart were fitted with a bi-exponential function. For liver, spleen and urinary bladder content a mono-exponential fit to the last three time points was performed.
Absorbed and effective dose calculations were performed using the ICRP endorsed IDAC 1.0 package which is integrated in QDOSE. Additionally, residence times of all included source organs and remainder body were exported as an OLINDA case file for dose calculation (OLINDA 1.1). The absorbed doses to the salivary glands (parotid and submandibular glands) were determined using the spherical model. The organ masses for the salivary glands were estimated with 25 g for a parotid and 12.5 g for a submandibular gland (ICRP publication 89).

LNCaP tumor xenografts = test: MicroPET in mice bearing LNCaP tumor xenografts; assay type: in vivo; conditions: 120-140 min p.i.
Protocol: For the microPET studies, 10-25 MBq of the radiolabeled compounds in a volume of 0.10 ml (60 pmol) were injected via a lateral tail vein into mice bearing LNCaP tumor xenografts. The anesthetized animals (2% sevoflurane, Abbott, Wiesbaden, Germany) were placed in prone position into the Inveon small animal PET scanner (Siemens, Knoxville, Tenn., USA) to perform dynamic microPET scans.
(§1) For in vivo experiments, 8 week old BALB/c nu/nu mice were subcutaneously inoculated into the right trunk with 5×10^6 LNCaP- or PC3-cells in 50% Matrigel. When the size of tumor was approximately 1 cm^3, the radiolabeled compound was injected via the tail vein (ca. 30 MBq, 60 pmol for μPET imaging; ca. 1 MBq, 60 pmol for organ distribution).

[2] = tested on: LNCaP tumor (PSMA positive); assay type: in vivo, mice
Protocol: as §1
(§2) The F-18 labeled compounds were injected via tail vein (1-2 MBq per mouse; 60 pmol). At 1 h after injection, the animals were sacrificed. Organs of interest were dissected, blotted dry, and weighed. The radioactivity was measured with a gamma counter (Packard Cobra II, GMI, Minnesota, USA) and calculated as % ID/g.

[3] = tested on: PC3-tumor (PSMA negative); test: Organ distribution in mice carrying a PC3-tumor (PSMA negative); assay type: in vivo
Protocol: as §1, §2

prostate cancer = test: First-in-man PET study in patients suffering from prostate cancer, with histopathology correlation; assay type: in vivo, human
Protocol: Ten patients (age 60-80 years) suffering from a newly diagnosed high-risk prostate cancer with a gleason score of 7-9 and initial PSA levels of 5-90 ng/ml were injected 100-360 MBq [^18F]-PSMA-1007 and subsequently PET scans were performed on a Biograph mCT Flow scanner (Siemens, Erlangen, Germany) at 1 and 3 h p.i. The results are depicted in FIGS. 17 and 18 as mean values of the SUVmean and SUVmax, respectively. The pictures gained with the PET scans are exemplified in FIGS. 19 and 20 as maximum intensity projections.
Eight of the patients underwent radical prostatectomy with extended pelvic lymphadenectomy. Analyses of prostatectomy specimen were performed blinded to PET-data under the supervision of dedicated uropathologists, according to International Society of Urological Pathology standards (T. H. van der Kwast et al. Mod. Phathol. 2011, 24, 16-25). Representative sections were stained by immunohistochemistry. The sections were deparaffinized in xylene and rehydrated in a graded ethanol series. Antigen retrieval was performed with a steam cooker using retrieval buffer (Target Retrieval Solution, Dako). A mouse monoclonal antibody against PSMA (clone 3E6, Dako) was used at a 1:100 dilution and incubated overnight at 4° C. ad subsequently immunodetection was performed using the Histostain-Plus detection kit (Invitrogen). Stained sections were scanned using a Nanozoomer 2.0-HT Scansystem (Hamamatsu Photonics) to generate digital whole slide images.

LNCaP cells = test: Specific cell uptake and internalization in LNCaP cells; assay type: cell-based, human
Protocol: During cell culture, cells were grown at 37° C. in an incubator with humidified air, equilibrated with 5% CO2. […] To determine the specific cell uptake and internalization, 10^5 cells were seeded in poly-L-lysine coated 24-well cell culture plates 24 h before incubation. After washing, the cells were incubated with 30 nM of the radiolabeled compounds for 45 min at 37° C. […] Cellular uptake was terminated by washing 3 times with 1 mL of ice-cold PBS. […] The cells were washed with 1 mL of ice-cold PBS and lysed using 0.3 N NaOH (0.5 mL). The surface-bound and the internalized fractions were measured in a gamma counter. The cell uptake was calculated as percent of the initially added radioactivity bound to 10^5 cells [% ID/10^5 cells].

[4] = 30 nM radiolabeled compound, 45 min, 37° C., specific (PMPA block)

## O=C(O)CCC(NC(=O)NC(CCCCNC(=O)C(Cc1ccc2ccccc2c1)NC(=O)c1ccc(CNC(=O)C(CCC(=O)O)NC(=O)C(CCC(=O)O)NC(=O)c2ccc([18F])nc2)cc1)C(=O)O)C(=O)O (centres unmarked) [PSMA-1007, (Glu)-(Urea)-(Lys)-(2-Nal)-(Bn)-(Glu)-(Glu)-FN]
[1]; 200-250 MBq, healthy volunteer
  effective dose of a PET/CT scan: 4.3-5.4 mSv
[1]; healthy volunteer
  blood pool activity found in the serum: More than 95%
  effective dose per injected activity: 0.0215 mSv/MBq
[1]; in comparison to other known PSMA-tracers
  clearance pathway: very unique hepatobiliary clearance with very small clearance via the renal pathway
[1]; within the first 3 h after injection, healthy volunteer
  clearance from the blood pool: more than 90%
LNCaP tumor xenografts
  SUVmax of LNCaP tumor: 3.1
[2]; LNCaP tumor mice with PMPA block
  blocking of tumor binding in the blocking experiment: a quantitative blocking of the binding was not observed
[2]; LNCaP tumor mice, 1 h after injection, non-blocked
  tumor uptake: about 8.0±2.4 % ID/g
[2]; mouse, in vivo
  uptake in non-target tissue such as the liver and the small intestine: significantly reduced uptake
[3]
  tumor uptake: practically no tumor uptake was observed
Prostate cancer
  correlation of prostatectomy histopathology with PET images: nearly perfect correlation
  diameter of detected lymph node metastases: ≥ 1 mm
  specificity (correlation with pelvic lymphadenectomy samples): 95%
Prostate cancer; calculated from SUVmax
  tumor-to-background ratios in the primary tumor: up to 10
LNCaP cells; [4]
  Cell surface: 2.7 % ID/10^5 cells
  Internalised: 6.5 % ID/10^5 cells
LNCaP cells; (Internalized activity/total activity)*100
  Internalized fraction: 71%

Reference: patent publication US10815200B2, “18F—tagged inhibitors of prostate specific membrane antigen (PSMA) and their use as imaging agents for prostate cancer” (DEUTSCHES KREBSFORSCHUNGSZENTRUM, priority 2015, dated 2020)
